# Measured values published in article PMC13266999, “Designing Antibiotics with Inherent Resistance to Efflux as a Strategy to Revive Discovery against Multidrug-Resistant Pathogens” (Journal of Medicinal Chemistry, 2026).
# Like-named read-outs stand apart in the source and are kept apart here.
# Experiments:
# [1] = test system: S. aureus; assay: MIC (microbroth dilution); format: cell-based, Staphylococcus aureus; conditions: for MIC: Staphylococcus aureus
# Procedure, shortened: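 Broth microdilution MICs, defined as lowest compound level without visible growth (OD600 read), on bacteria grown overnight to stationary phase then diluted. Twofold compound dilutions; some wells also received PMBN, final 30 μg/mL, to permeabilize the outer membrane.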
# [2] = test system: Acinetobacter baumannii; assay: MIC (microbroth dilution); format: cell-based
# Description: (§1) All bacteria were maintained on tryptic soy agar (TSA), except Streptococcus spp., which were maintained on Columbia agar plates containing 5% horse blood. All bacterial assays were carried out in tryptic soy broth (TSB), except for Streptococcus spp. which were grown in cation-adjusted Mueller Hinton broth containing 2.5% lysed horse blood. Bacteria were grown to stationary phase in liquid culture overnight, with shaking at 200 rpm, before being back diluted to the relevant starting concentration for each assay below. MICs were measured by the microbroth dilution method. […] Absorbance at OD600 was read on a CLARIOstar spectrophotometer (BMG Labtech) and the MIC was defined as the minimum concentration of compound where no visible growth was detected. The compounds were prepared as a DMSO stock and equivalent concentrations of DMSO had no effect on bacterial growth. MICs were also performed in the presence of the outer membrane permeator, polymyxin b nonapeptide (PMBN) following the same MIC method but with the following variation. The 2-fold dilution series of compound was prepared as above, then 50 μL of PMBN at a final concentration of 30 μg/mL was added to relevant wells, while 50 μL/well of blank media was added to the remaining wells. Bacteria were then added at 50 μL/well for a starting concentration as above. Thirty μg/mL of PMBN had no effect on bacterial growth. The MICs were read and defined as above. All animal procedures were performed by the contract research organization Pharmacology Discovery Services Taiwan in accordance with the Guide for the Care and Use of Laboratory Animals. The procedures were approved by the Institutional Ethics Committee of Pharmacology Discovery Services Taiwan, Ltd. (approval no. AB127662), in compliance with animal welfare legislation in Taiwan.
# [3] = test system: NorA overexpressing strain NCTC 13616; assay: Reserpine growth (efflux inhibition) assay; conditions: 0.5x MIC with vs without reserpine
# Description: Statistical analyses were performed with GraphPad Prism V9.5.0. […] Unpaired t tests were used when comparing two samples in the gyrase assays.
# [4] = test system: K. pneumoniae; assay: MIC (microbroth dilution); format: cell-based, Klebsiella pneumoniae; conditions: Klebsiella pneumoniae, read-out: MIC
# Description: as §1, with “All bacterial assays were carried out in tryptic soy broth (TSB), except for Streptococcus spp. which were grown in cation-adjusted Mueller Hinton broth containing 2.5% lysed horse blood.” left out, “The compounds were prepared as a DMSO stock and equivalent concentrations of DMSO had no effect on bacterial growth.” left out, “Thirty μg/mL of PMBN had no effect on bacterial growth.” left out
# [5] = test system: S. aureus; assay: Serial passaging, MIC of adapted strains; format: cell-based; conditions: Staphylococcus aureus
# Description: MICs were performed on the first and 10th passage.
# [6] = test system: A. baumannii strain AYE; assay: Time-kill assay; format: cell-based; conditions: 4 × MIC
# Description: Time-kill assays were performed as defined previously.
# [7] = test system: E. coli; assay: MIC (microbroth dilution); format: cell-based; conditions: Escherichia coli
# Description: as §1, with “All bacterial assays were carried out in tryptic soy broth (TSB), except for Streptococcus spp. which were grown in cation-adjusted Mueller Hinton broth containing 2.5% lysed horse blood.” left out, “The compounds were prepared as a DMSO stock and equivalent concentrations of DMSO had no effect on bacterial growth.” left out, “Thirty μg/mL of PMBN had no effect on bacterial growth.” left out
# [8] = reported values; cited from earlier work
compound,measurement,setting,value
"COc1c(N2CC[C@@H](Nc3ncccn3)C2)c(F)cc2c(=O)c(C(=O)O)cn(C3CC3)c12 [Compound 51, (R)-1-Cyclopropyl-6-fluoro-8-methoxy-4-oxo-7-(3-(pyrimidin-2-ylamino)pyrrolidin-1-yl)-1,4-dihydroquinoline-3-carboxylic acid]",fold more active than moxifloxacin,[1],4–8 fold
same,MIC,"[1]; ATCC9144, ATCC 9144, read-out: MIC",≤ 0.03 µg/mL
same,MIC,"[1]; NCTC13277, NCTC 13277, read-out: MIC",0.125 to 0.25 µg/mL
same,MIC,"[1]; NCTC13616, NCTC 13616, read-out: MIC",0.125 µg/mL
same,MIC,"[1]; SA-1199, read-out: MIC",0.004 µg/mL
same,MIC,[1]; SA-1199B (NorA-overexpressing),0.004 µg/mL
same,MIC,"[2]; Acinetobacter baumannii, 86, oxa23",16 µg/mL
same,MIC,"[2]; Acinetobacter baumannii, A601 colS",≤ 0.03 µg/mL
same,MIC,"[2]; Acinetobacter baumannii, ATCC17978, ATCC 17978, read-out: MIC",≤ 0.125 µg/mL
same,MIC,"[2]; Acinetobacter baumannii, BAA1709, BAA-1709, read-out: MIC",0.06 µg/mL
same,MIC,"[2]; Acinetobacter baumannii, BAA1710, BAA-1710 (AYE), read-out: MIC",4 µg/mL
same,MIC,"[2]; Acinetobacter baumannii, BAA2093, BAA-2093, read-out: MIC",0.03 to 0.06 µg/mL
same,MIC,"[2]; Acinetobacter baumannii, NCTC10303, NCTC 10303, read-out: MIC",0.06 µg/mL
same,MIC,"[2]; Acinetobacter baumannii, NCTC12156, NCTC 12156, read-out: MIC",0.125 µg/mL
same,MIC,"[2]; Acinetobacter baumannii, NCTC13302, NCTC 13302, oxa24, read-out: MIC",4 µg/mL
same,MIC,"[2]; Acinetobacter baumannii, NCTC13424, NCTC 13424, oxa23, read-out: MIC",> 32 µg/mL
same,MIC,"[2]; Acinetobacter baumannii, T strain",8 µg/mL
same,MIC,"[2]; Acinetobacter baumannii, UKA1, oxa23, read-out: MIC",2 µg/mL
same,MIC,"[2]; Acinetobacter baumannii, UKA2, Low resistance, read-out: MIC",4 µg/mL
same,MIC,"[2]; Acinetobacter baumannii, UKA9, read-out: MIC",0.06 µg/mL
same,MIC,"[2]; Acinetobacter baumannii, UKA12, oxa23, read-out: MIC",2 µg/mL
same,MIC,"[2]; Acinetobacter baumannii, UKA13, oxa23, read-out: MIC",2 µg/mL
same,MIC,"[2]; Acinetobacter baumannii, UKA15, oxa23, read-out: MIC",2 µg/mL
same,MIC,"[2]; Acinetobacter baumannii, UKA19, read-out: MIC",0.25 µg/mL
same,MIC,"[2]; Acinetobacter baumannii, W1, read-out: MIC",4 µg/mL
same,efflux liability in reserpine assay,[3],minimal shift
same,MIC,[4]; M6,1 to 2 µg/mL
same,MIC,"[4]; NCTC13368, NCTC 13368",4 µg/mL
same,MIC,[4]; TW3,0.5 µg/mL
same,MIC,[5]; 1199B WT,0.008 µg/mL
same,MIC,[5]; 1199B adapted to 4 x MIC of Compound 7,0.008 µg/mL
same,MIC,[5]; 1199B adapted to 4 x MIC of Compound 46,0.03 µg/mL
same,MIC,[5]; 1199B adapted to 4 x MIC of Compound 50,0.125 µg/mL
same,MIC,[5]; 1199B adapted to 4 x MIC of Compound 51,0.015 µg/mL
same,MIC,[5]; 1199 WT,0.004 µg/mL
same,MIC,[5]; 1199 adapted to 4 x MIC of Compound 7,≤ 0.008 µg/mL
same,MIC,[5]; 1199 adapted to 4 x MIC of Compound 46,≤ 0.008 µg/mL
same,MIC,[5]; 1199 adapted to 4 x MIC of Compound 50,0.06 µg/mL
same,MIC,[5]; 1199 adapted to 4 x MIC of Compound 51,0.015 µg/mL
same,MIC,"[5]; NCTC13616, NCTC 13616 WT",0.125 µg/mL
same,MIC,"[5]; NCTC13616, NCTC 13616 adapted to 4 x MIC of Compound 7",0.25 µg/mL
same,MIC,"[5]; NCTC13616, NCTC 13616 adapted to 4 x MIC of Compound 46",0.125 µg/mL
same,MIC,"[5]; NCTC13616, NCTC 13616 adapted to 4 x MIC of Compound 50",0.25 µg/mL
same,MIC,"[5]; NCTC13616, NCTC 13616 adapted to 4 x MIC of Compound 51",0.5 µg/mL
same,time-kill profile,[6],rapid bactericidal activity
same,MIC,[7]; 319238/UR,16 µg/mL
same,MIC,[7]; LEC006,0.25 µg/mL
same,MIC,[7]; LEC007,0.125 µg/mL
same,MIC,[7]; LEC077,4 µg/mL
same,MIC,[7]; LEC081,2 µg/mL
same,MIC,"[7]; NCTC10418, NCTC 10418",0.125 µg/mL
same,MIC,"[7]; NCTC11954, NCTC 11954",0.125 µg/mL
same,MIC,"[7]; NCTC12241, NCTC 12241",0.06 µg/mL
same,MIC,"[7]; NCTC12923, NCTC 12923",≤ 0.125 µg/mL
Nc1nc(-n2cc(C(=O)O)c(=O)c3cc(F)c(N4CC(O)C4)c(Cl)c32)c(F)cc1F [delafloxacin],plasma protein binding,[8],84%
